Experimental data from US4150970A, “Growth regulator for plants” (Board of Trustees of Michigan State University, priority 1977, dated 1979).

Legend:
[1] = tested on: oat first-internode; conditions: published reports; cited from earlier work
[2] = tested on: plants; assay: Plant growth regulation (general statement); assay type: in vivo; conditions: analogous compounds
[3] = tested on: tobacco callus; assay: Growth of tobacco callus, triacontanol and octocosanol (Example XIX, FIG. 6); assay type: cell-based, Nicotiana tabacum, var. Wisconsin 38; conditions: four concentrations, 10 days
Description: Cell cultures were separately grown in disposable petri dishes.
1. Haploid tobacco (Nicotiana tabacum, var. Wisconsin 38)
The cultures were grown on the basic medium of mineral salts described by Linsmaier and Skoog (Physiol. Plant, […] (1965)). Vitamins and hormones varied for each tissue (Table X-1) to maintain the tissues in an undifferentiated state. For all of the tissues inositol was 100 mg/liter and agar 1%. Sucrose was 3% for all but the bean which was 2%.
Callus was produced from pith for tobacco, potato and tomato. Bean callus was produced from hypocotyl sections and barley callus from immature ovarian tissue. Subcultures were maintained on the appropriate media.
Stock solutions of triacontanol were prepared at a concentration of 100 μg/ml. The solvent used was glass distilled benzene. The lower concentrations were obtained by serial dilutions. Treatments were applied to 4.5 cm Whatman #1 filter paper disks in 100 μl aliquots. Controls received 100 μl of glass distilled benzene. The solvent was evaporated for approximately 15 minutes and the filter papers were then placed on the agar medium.
Callus tissue was then broken into pieces of approximately the same size (10 mg) and placed in the petri dishes on the treated filter paper (one piece per dish). For experiments conducted in the light the intensity was approximately 2.0 microwatts/cm^2 -namometer. Fresh weight measurements were made after 12 days of growth.
A stock solution of octocosanol (CH3 (CH2)26 CH2 OH was prepared in the same manner as the triacontanol solutions above described.
The effect of four concentrations of triacontanol and octocosanol on tobacco callus was determined, using the materials and procedures above described in this Example. The dishes were tared and weighed at the end of 10 days. The results are illustrated in FIG. 6 of the drawings.

Compound | growth, oat first-internode method [1] | effect as plant growth regulator [2] | growth over the control [3]
CCCCCCCCCCCCCCCCCCCCCCO [1-docosanol, reference compound] | increase growth | – | –
CCCCCCCCCCCCCCCCCCCCCCCCCCCC(=O)O [octocosanoic acid] | – | ineffective | –
CCCCCCCCCCCCCCCCCCCCCCCCCCCCO [octocosanol, reference compound] | – | ineffective | no effect on growth
CCCCCCCCCCCCCCCCCCCCCCCCCCCCCC [triacontane] | – | ineffective | –
